Measured values: ChEMBL document CHEMBL1201862, “PubChem BioAssay data set” (2004)
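Briefly, cells in 96-well plates were exposed to five compound concentrations for 48 h, and endpoints were estimated by linear interpolation. GI50 marks 50% less growth.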 Activity calls are given as the source filed them. Cut-off read from the data, not from the text of the source: active = GI50 up to about 1.1 µM and inactive = higher.

How the values were obtained:
Test in all cases: NCI tumour cell line growth inhibition, 48 h
786-0 = system: 786-0
SK-MEL-28 = system: SK-MEL-28
EKVX = system: EKVX
OVCAR-3 = system: OVCAR-3
K562 = system: K562
SF-268 = system: SF-268
KM12 = system: KM12
OVCAR-5 = system: OVCAR-5
NCI-H460 = system: NCI-H460
HOP-92 = system: HOP-92
DMS-114 = system: DMS-114
HOP-62 = system: HOP-62
KM-20L2 = system: KM-20L2
UACC-62 = system: UACC-62
HCT-15 = system: HCT-15
MOLT-4 = system: MOLT-4
HL-60 = system: HL-60
M14 = system: M14
RPMI-8226 = system: RPMI-8226
LOX IMVI = system: LOX IMVI
CCRF-CEM = system: CCRF-CEM
SK-OV-3 = system: SK-OV-3
Malme-3M = system: Malme-3M
IGROV-1 = system: IGROV-1
COLO 205 = system: COLO 205
SK-MEL-2 = system: SK-MEL-2
SW-620 = system: SW-620
ACHN = system: ACHN
LXFL 529 = system: LXFL 529
SR = system: SR
SK-MEL-5 = system: SK-MEL-5
SNB-78 = system: SNB-78
NCI-H226 = system: NCI-H226
CAKI-1 = system: CAKI-1
SN12C = system: SN12C
HOP-18 = system: HOP-18
HCT-116 = system: HCT-116
UO-31 = system: UO-31
OVCAR-8 = system: OVCAR-8
HCC 2998 = system: HCC 2998
TK-10 = system: TK-10
SF-295 = system: SF-295
A549 = system: A549
DLD-1 = system: DLD-1
RXF 393 = system: RXF 393
XF498 = system: XF498
A498 = system: A498
NCI-H23 = system: NCI-H23
NCI-H522 = system: NCI-H522
HT-29 = system: HT-29
M19-MEL = system: M19-MEL
SNB-75 = system: SNB-75
SNB-19 = system: SNB-19
UACC-257 = system: UACC-257
DMS-273 = system: DMS-273
OVCAR-4 = system: OVCAR-4
RXF 631 = system: RXF 631
SF-539 = system: SF-539
U-251 = system: U-251
MCF7 = system: MCF7
NCI/ADR-RES = system: NCI/ADR-RES

Measured: GI50

NC1c2ccccc2Nc2ccccc21
inactive: 786-0 3.84 µM | SK-MEL-28 3.54 µM | EKVX 5.71 µM | OVCAR-3 6.08 µM | K562 3.54 µM | SF-268 3.08 µM | KM12 4.22 µM | OVCAR-5 5.04 µM | NCI-H460 2.76 µM | HOP-92 3.27 µM | DMS-114 3.24 µM | HOP-62 6.15 µM | KM-20L2 3.76 µM | UACC-62 4.26 µM | MOLT-4 2.94 µM | HL-60 4.3 µM | M14 3.92 µM | RPMI-8226 4.56 µM | LOX IMVI 3.53 µM | CCRF-CEM 5.2 µM | SK-OV-3 4.67 µM | Malme-3M 4.97 µM | IGROV-1 2.95 µM | COLO 205 2.21 µM | SK-MEL-2 13.2 µM | SW-620 3.66 µM | ACHN 4.9 µM | LXFL 529 4.94 µM | SR 2.64 µM | SK-MEL-5 5.28 µM | SNB-78 9.1 µM | NCI-H226 9.1 µM | CAKI-1 3.63 µM | SN12C 4.53 µM | HOP-18 8.81 µM | HCT-116 3.23 µM | UO-31 3.27 µM | OVCAR-8 4.34 µM | HCC 2998 6.46 µM | TK-10 5.82 µM | SF-295 4.49 µM | A549 4.26 µM | DLD-1 3.8 µM | RXF 393 6.24 µM | XF498 3.16 µM | A498 8.34 µM | NCI-H23 4.74 µM | NCI-H522 2.15 µM | HT-29 4.08 µM | M19-MEL 3.36 µM | SNB-75 11.8 µM | SNB-19 5.18 µM | UACC-257 5.21 µM | DMS-273 4.52 µM
3.31 µM: HCT-15

COc1cc(CC(=O)O)c([N+](=O)[O-])cc1OC
> 100 µM: HCT-15
inactive: 786-0 > 100 µM | SK-MEL-28 > 100 µM | EKVX > 100 µM | OVCAR-3 > 100 µM | K562 > 100 µM | SF-268 > 100 µM | KM12 > 100 µM | OVCAR-5 > 100 µM | NCI-H460 > 100 µM | HOP-92 > 100 µM | DMS-114 > 100 µM | HOP-62 > 100 µM | KM-20L2 > 100 µM | UACC-62 > 100 µM | MOLT-4 > 100 µM | HL-60 > 100 µM | M14 > 100 µM | RPMI-8226 > 100 µM | LOX IMVI > 100 µM | CCRF-CEM > 100 µM | SK-OV-3 > 100 µM | Malme-3M > 100 µM | IGROV-1 > 100 µM | COLO 205 > 100 µM | SK-MEL-2 > 100 µM | SW-620 > 100 µM | ACHN > 100 µM | LXFL 529 > 100 µM | SNB-78 > 100 µM | OVCAR-4 > 100 µM | NCI-H226 > 100 µM | CAKI-1 > 100 µM | SN12C > 100 µM | HCT-116 > 100 µM | UO-31 > 100 µM | OVCAR-8 > 100 µM | HCC 2998 > 100 µM | TK-10 > 100 µM | SF-295 > 100 µM | A549 > 100 µM | RXF 631 > 100 µM | DLD-1 > 100 µM | RXF 393 > 100 µM | SF-539 > 100 µM | A498 > 100 µM | NCI-H23 > 100 µM | NCI-H522 > 100 µM | HT-29 > 100 µM | U-251 > 100 µM | M19-MEL > 100 µM | SNB-75 > 100 µM | SNB-19 > 100 µM | UACC-257 > 100 µM | DMS-273 > 100 µM

CN(C)c1nc(Oc2nc(N(C)C)nc(N(C)C)n2)nc(N(C)C)n1
inactive: 786-0 > 100 µM | SK-MEL-28 > 100 µM | EKVX > 100 µM | OVCAR-3 46 µM | K562 59.2 µM | SF-268 > 100 µM | KM12 62.5 µM | OVCAR-5 > 100 µM | NCI-H460 > 100 µM | HOP-92 > 100 µM | DMS-114 51.4 µM | KM-20L2 > 100 µM | UACC-62 > 100 µM | MOLT-4 > 100 µM | HL-60 52.5 µM | M14 > 100 µM | RPMI-8226 63.5 µM | LOX IMVI > 100 µM | CCRF-CEM > 100 µM | SK-OV-3 > 100 µM | Malme-3M > 100 µM | IGROV-1 > 100 µM | COLO 205 22.1 µM | SK-MEL-2 > 100 µM | SW-620 > 100 µM | ACHN > 100 µM | LXFL 529 > 100 µM | SR > 100 µM | SK-MEL-5 > 100 µM | SNB-78 61.4 µM | OVCAR-4 > 100 µM | NCI-H226 > 100 µM | CAKI-1 > 100 µM | SN12C > 100 µM | HOP-18 > 100 µM | HCT-116 > 100 µM | UO-31 > 100 µM | OVCAR-8 93.8 µM | HCC 2998 88.7 µM | TK-10 > 100 µM | SF-295 > 100 µM | A549 67 µM | DLD-1 > 100 µM | RXF 393 > 100 µM | XF498 84.7 µM | SF-539 > 100 µM | A498 > 100 µM | NCI-H23 72.6 µM | NCI-H522 70.8 µM | HT-29 > 100 µM | U-251 75.2 µM | M19-MEL 82.4 µM | SNB-75 35.9 µM | SNB-19 > 100 µM | UACC-257 56.5 µM | DMS-273 61 µM
> 100 µM: HCT-15

C/C(=C\c1ccccc1)C(=O)CCN1CCOCC1
inactive: SK-MEL-28 19.4 µM | EKVX 27.8 µM | MCF7 7.87 µM | OVCAR-3 19.3 µM | K562 30.1 µM | SF-268 32.1 µM | KM12 14.9 µM | OVCAR-5 18.9 µM | NCI-H460 62.1 µM | HOP-92 20.4 µM | DMS-114 18.7 µM | HOP-62 > 100 µM | KM-20L2 19.5 µM | UACC-62 17.6 µM | MOLT-4 19.1 µM | HL-60 33.7 µM | RPMI-8226 3.15 µM | LOX IMVI 16.9 µM | CCRF-CEM 30.6 µM | SK-OV-3 > 100 µM | Malme-3M 17.5 µM | IGROV-1 27.4 µM | NCI/ADR-RES 21.8 µM | COLO 205 17.2 µM | SK-MEL-2 27.2 µM | SW-620 16.5 µM | SK-MEL-5 33 µM | SNB-78 15.6 µM | OVCAR-4 18 µM | NCI-H226 > 46.1 µM | CAKI-1 18.1 µM | SN12C 18.2 µM | HOP-18 18.3 µM | HCT-116 28 µM | UO-31 20.8 µM | OVCAR-8 20.5 µM | HCC 2998 16.7 µM | SF-295 > 100 µM | A549 > 90.8 µM | DLD-1 17.3 µM | RXF 393 19.7 µM | XF498 18.3 µM | SF-539 18.3 µM | A498 > 56 µM | NCI-H23 16.9 µM | NCI-H522 7.94 µM | HT-29 18.8 µM | U-251 18.1 µM | M19-MEL 17.2 µM | SNB-75 23.7 µM | SNB-19 > 44.9 µM | UACC-257 15.6 µM | DMS-273 19.7 µM
16.3 µM: HCT-15

COc1cc(/C=C/C(=O)c2sc(NNC(C)=O)nc2C)ccc1O
inactive: 786-0 > 100 µM | SK-MEL-28 > 100 µM | EKVX > 100 µM | OVCAR-3 > 100 µM | K562 > 100 µM | SF-268 > 100 µM | KM12 > 100 µM | OVCAR-5 > 100 µM | NCI-H460 > 100 µM | HOP-92 > 100 µM | DMS-114 > 100 µM | HOP-62 > 100 µM | KM-20L2 > 100 µM | UACC-62 > 100 µM | MOLT-4 > 100 µM | HL-60 > 100 µM | RPMI-8226 > 100 µM | LOX IMVI > 100 µM | CCRF-CEM > 100 µM | SK-OV-3 > 100 µM | Malme-3M > 100 µM | IGROV-1 > 100 µM | COLO 205 > 100 µM | SK-MEL-2 > 100 µM | SW-620 > 100 µM | ACHN > 100 µM | SK-MEL-5 > 100 µM | SNB-78 > 100 µM | NCI-H226 > 100 µM | CAKI-1 > 100 µM | SN12C > 100 µM | HOP-18 > 100 µM | UO-31 > 100 µM | OVCAR-8 > 100 µM | HCC 2998 > 100 µM | TK-10 > 100 µM | SF-295 > 100 µM | A549 > 100 µM | RXF 631 > 100 µM | DLD-1 > 100 µM | RXF 393 > 100 µM | SF-539 > 100 µM | A498 84.3 µM | NCI-H23 > 100 µM | NCI-H522 > 100 µM | HT-29 > 100 µM | U-251 > 100 µM | SNB-75 > 100 µM | UACC-257 > 100 µM | DMS-273 > 100 µM
> 100 µM: HCT-15
